Assay results from publication PMC11975047, “Antiproliferative effects, mechanism of action and tumor reduction studies in a lung cancer xenograft mouse model of an organometallic gold(I) alkynyl complex” (RSC Medicinal Chemistry, 2025).

What was measured:
[1] = target: T1, thioredoxin reductase (TrxR), rat liver (Rattus norvegicus, UniProt O89049); experiment: DTNB reduction assay with purified rat liver TrxR, reference inhibitor
T1 construct: gene Txnrd1

[2] = target: T1, thioredoxin reductase (TrxR), rat liver; experiment: DTNB reduction assay with purified rat liver TrxR, […] min preincubation, […] nm

T1 sequence (O89049 whole entry): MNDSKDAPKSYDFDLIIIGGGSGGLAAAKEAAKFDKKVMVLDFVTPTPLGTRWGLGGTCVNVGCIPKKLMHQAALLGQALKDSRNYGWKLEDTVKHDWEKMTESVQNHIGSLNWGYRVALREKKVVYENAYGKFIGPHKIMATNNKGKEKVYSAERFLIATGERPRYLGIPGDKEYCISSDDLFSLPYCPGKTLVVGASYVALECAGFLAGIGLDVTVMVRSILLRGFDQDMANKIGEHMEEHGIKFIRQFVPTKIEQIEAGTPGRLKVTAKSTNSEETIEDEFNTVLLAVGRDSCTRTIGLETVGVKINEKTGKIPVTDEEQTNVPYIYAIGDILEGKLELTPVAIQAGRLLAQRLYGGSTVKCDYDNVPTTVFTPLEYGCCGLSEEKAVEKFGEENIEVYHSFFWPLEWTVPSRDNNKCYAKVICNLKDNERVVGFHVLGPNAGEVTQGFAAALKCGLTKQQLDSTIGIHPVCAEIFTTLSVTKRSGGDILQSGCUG

SMILES | IC50 [1] [nM] | IC50 [2] [nM]
CC[P](CC)(CC)=[Au][S][C@@H]1O[C@H](COC(C)=O)[C@@H](OC(C)=O)[C@H](OC(C)=O)[C@H]1OC(C)=O [AF, Auranofin] | 30 | –
CC[P+](CC)(CC)[Au-][C]#Cc1ccc(OC)cc1 [compound 1, complex 1] | – | 50 ± 10
